{
  "source": "patent US20150011423A1",
  "about": "“MEANS AND METHODS FOR ASSESSING KIDNEY TOXICITY” (BASF SE, priority 2011, published 2015)",
  "system": "rats",
  "experiment": "28-day repeated dose study in rats with mass spectrometry-based plasma metabolite profiling (GC-MS, LC-MS, SPE-LC-MS); treatment ratios versus control",
  "details": "plasma; for Arginine, treatment ratio versus control / Indole-3-lactic acid, treatment ratio versus control / Ketoleucine, treatment ratio versus control / Proline, treatment ratio versus control / Tryptophan, treatment ratio versus control / trans-4-Hydroxyproline, treatment ratio versus control: Table 4b inhibition of weak acid excretion; for Cytosine, treatment ratio versus control / Glutamate, treatment ratio versus control: Table 6b ACE inhibitor induced like toxicity; for 4-Hydroxy-3-methoxyphenylglycol (HMPG), treatment ratio versus control / Cysteine, treatment ratio versus control / Isopalmitic acid (C16:0), treatment ratio versus control / Metanephrine, treatment ratio versus control / Normetanephrine, treatment ratio versus control: Table 2d glomerular-tubular defect",
  "key": {"[1]": {"details": "female rats, day 7, high dose, Table 4a inhibition of weak acid excretion"}, "[2]": {"details": "female rats, day 14, high dose, Table 4a inhibition of weak acid excretion"}, "[3]": {"details": "female rats, day 28, high dose, Table 4a inhibition of weak acid excretion"}, "[4]": {"details": "male rats, day 7, high dose, Table 2c glomerular-tubular defect"}, "[5]": {"details": "male rats, day 14, high dose, Table 2c glomerular-tubular defect"}, "[6]": {"details": "male rats, day 28, high dose, Table 2c glomerular-tubular defect"}},
  "note": "Marks after values point to notes of the source that are not given here.",
  "data": [
    {"compound": "Oc1c(Cl)c(Cl)c(Cl)c(Cl)c1Cl", "note": "[Pentachlorophenol]", "values": [
      {"measurement": "Glycerol, lipid fraction, treatment ratio versus control", "setting": "[1]", "value": "1.56 *"},
      {"measurement": "Linoleic acid (C18:cis[9,12]2), treatment ratio versus control", "setting": "[1]", "value": "1.35 *"},
      {"measurement": "Lysophosphatidylcholine (C18:2), treatment ratio versus control", "setting": "[1]", "value": "1.32 *"},
      {"measurement": "Phosphatidylcholine (C16:0, C16:0), treatment ratio versus control", "setting": "[1]", "value": "1.04^"},
      {"measurement": "Phosphatidylcholine (C16:0, C18:2), treatment ratio versus control", "setting": "[1]", "value": "1.02^"},
      {"measurement": "Phosphatidylcholine (C16:0, C20:5), treatment ratio versus control", "setting": "[1]", "value": "1.05 *"},
      {"measurement": "Phosphatidylcholine (C16:1, C18:2), treatment ratio versus control", "setting": "[1]", "value": "0.87^"},
      {"measurement": "Phosphatidylcholine (C18:0, C18:1), treatment ratio versus control", "setting": "[1]", "value": "0.98^"},
      {"measurement": "Phosphatidylcholine (C18:1, C18:2), treatment ratio versus control", "setting": "[1]", "value": "0.85^"},
      {"measurement": "gamma-Linolenic acid (C18:cis[6,9,12]3), treatment ratio versus control", "setting": "[1]", "value": "0.78 *"},
      {"measurement": "Arginine, treatment ratio versus control", "setting": "female rats, day 7, high dose", "value": "0.56 *"},
      {"measurement": "Indole-3-lactic acid, treatment ratio versus control", "setting": "female rats, day 7, high dose", "value": "0.62 *"},
      {"measurement": "Ketoleucine, treatment ratio versus control", "setting": "female rats, day 7, high dose", "value": "0.6 *"},
      {"measurement": "Proline, treatment ratio versus control", "setting": "female rats, day 7, high dose", "value": "0.73 *"},
      {"measurement": "Tryptophan, treatment ratio versus control", "setting": "female rats, day 7, high dose", "value": "0.6 *"},
      {"measurement": "trans-4-Hydroxyproline, treatment ratio versus control", "setting": "female rats, day 7, high dose", "value": "0.87 *"},
      {"measurement": "Glycerol, lipid fraction, treatment ratio versus control", "setting": "[2]", "value": "2.38 *"},
      {"measurement": "Linoleic acid (C18:cis[9,12]2), treatment ratio versus control", "setting": "[2]", "value": "1.8 *"},
      {"measurement": "Lysophosphatidylcholine (C18:2), treatment ratio versus control", "setting": "[2]", "value": "1.41 *"},
      {"measurement": "Phosphatidylcholine (C16:0, C16:0), treatment ratio versus control", "setting": "[2]", "value": "1.25 *"},
      {"measurement": "Phosphatidylcholine (C16:0, C18:2), treatment ratio versus control", "setting": "[2]", "value": "1.34 *"},
      {"measurement": "Phosphatidylcholine (C16:0, C20:5), treatment ratio versus control", "setting": "[2]", "value": "1.57 *"},
      {"measurement": "Phosphatidylcholine (C16:1, C18:2), treatment ratio versus control", "setting": "[2]", "value": "1.32 *"},
      {"measurement": "Phosphatidylcholine (C18:0, C18:1), treatment ratio versus control", "setting": "[2]", "value": "1.54 *"},
      {"measurement": "Phosphatidylcholine (C18:1, C18:2), treatment ratio versus control", "setting": "[2]", "value": "1.4 *"},
      {"measurement": "gamma-Linolenic acid (C18:cis[6,9,12]3), treatment ratio versus control", "setting": "[2]", "value": "1.81^"},
      {"measurement": "Arginine, treatment ratio versus control", "setting": "female rats, day 14, high dose", "value": "0.72^"},
      {"measurement": "Indole-3-lactic acid, treatment ratio versus control", "setting": "female rats, day 14, high dose", "value": "0.65 *"},
      {"measurement": "Ketoleucine, treatment ratio versus control", "setting": "female rats, day 14, high dose", "value": "0.64 *"},
      {"measurement": "Proline, treatment ratio versus control", "setting": "female rats, day 14, high dose", "value": "0.74 *"},
      {"measurement": "Tryptophan, treatment ratio versus control", "setting": "female rats, day 14, high dose", "value": "0.62 *"},
      {"measurement": "trans-4-Hydroxyproline, treatment ratio versus control", "setting": "female rats, day 14, high dose", "value": "0.92^"},
      {"measurement": "Glycerol, lipid fraction, treatment ratio versus control", "setting": "[3]", "value": "1.61 *"},
      {"measurement": "Linoleic acid (C18:cis[9,12]2), treatment ratio versus control", "setting": "[3]", "value": "1.73 *"},
      {"measurement": "Lysophosphatidylcholine (C18:2), treatment ratio versus control", "setting": "[3]", "value": "1.66 *"},
      {"measurement": "Phosphatidylcholine (C16:0, C16:0), treatment ratio versus control", "setting": "[3]", "value": "1.1 *"},
      {"measurement": "Phosphatidylcholine (C16:0, C18:2), treatment ratio versus control", "setting": "[3]", "value": "1.49 *"},
      {"measurement": "Phosphatidylcholine (C16:0, C20:5), treatment ratio versus control", "setting": "[3]", "value": "1.67 *"},
      {"measurement": "Phosphatidylcholine (C16:1, C18:2), treatment ratio versus control", "setting": "[3]", "value": "1.54 *"},
      {"measurement": "Phosphatidylcholine (C18:0, C18:1), treatment ratio versus control", "setting": "[3]", "value": "1.41 *"},
      {"measurement": "Phosphatidylcholine (C18:1, C18:2), treatment ratio versus control", "setting": "[3]", "value": "1.3 *"},
      {"measurement": "gamma-Linolenic acid (C18:cis[6,9,12]3), treatment ratio versus control", "setting": "[3]", "value": "3.23 *"},
      {"measurement": "Arginine, treatment ratio versus control", "setting": "female rats, day 28, high dose", "value": "0.44 *"},
      {"measurement": "Indole-3-lactic acid, treatment ratio versus control", "setting": "female rats, day 28, high dose", "value": "0.49 *"},
      {"measurement": "Ketoleucine, treatment ratio versus control", "setting": "female rats, day 28, high dose", "value": "0.6 *"},
      {"measurement": "Proline, treatment ratio versus control", "setting": "female rats, day 28, high dose", "value": "0.74 *"},
      {"measurement": "Tryptophan, treatment ratio versus control", "setting": "female rats, day 28, high dose", "value": "0.54 *"},
      {"measurement": "trans-4-Hydroxyproline, treatment ratio versus control", "setting": "female rats, day 28, high dose", "value": "0.94 *"}
    ]},
    {"compound": "CCOC(=O)[C@H](CCc1ccccc1)N[C@@H](C)C(=O)N1[C@H](C(=O)O)C[C@@H]2CCC[C@@H]21", "note": "[Ramipril]", "values": [
      {"measurement": "Cytosine, treatment ratio versus control", "setting": "male rats, day 7, high dose", "value": "0.7 *"},
      {"measurement": "Glutamate, treatment ratio versus control", "setting": "male rats, day 7, high dose", "value": "0.92 *"},
      {"measurement": "Glycine, treatment ratio versus control", "setting": "male rats, day 14, high dose, Table 6a ACE inhibitor induced like toxicity", "value": "1.5 *"},
      {"measurement": "Cytosine, treatment ratio versus control", "setting": "male rats, day 14, high dose", "value": "0.85 *"},
      {"measurement": "Glutamate, treatment ratio versus control", "setting": "male rats, day 14, high dose", "value": "0.71 *"},
      {"measurement": "Cytosine, treatment ratio versus control", "setting": "male rats, day 28, high dose", "value": "0.91^"},
      {"measurement": "Glutamate, treatment ratio versus control", "setting": "male rats, day 28, high dose", "value": "0.61 *"}
    ]},
    {"compound": "Tricresyl phosphate", "values": [
      {"measurement": "Creatine, treatment ratio versus control", "setting": "[4]", "value": "1.16 *"},
      {"measurement": "Creatinine, treatment ratio versus control", "setting": "[4]", "value": "0.77^"},
      {"measurement": "Glycerol-3-phosphate, polar fraction, treatment ratio versus control", "setting": "[4]", "value": "0.83 *"},
      {"measurement": "Lysophosphatidylcholine (C18:2), treatment ratio versus control", "setting": "[4]", "value": "1.19^"},
      {"measurement": "Threonic acid, treatment ratio versus control", "setting": "[4]", "value": "1.32 *"},
      {"measurement": "4-Hydroxy-3-methoxyphenylglycol (HMPG), treatment ratio versus control", "setting": "male rats, day 7, high dose", "value": "0.95^"},
      {"measurement": "Cysteine, treatment ratio versus control", "setting": "male rats, day 7, high dose", "value": "0.44 *"},
      {"measurement": "Isopalmitic acid (C16:0), treatment ratio versus control", "setting": "male rats, day 7, high dose", "value": "0.84 *"},
      {"measurement": "Metanephrine, treatment ratio versus control", "setting": "male rats, day 7, high dose", "value": "0.43 *"},
      {"measurement": "Normetanephrine, treatment ratio versus control", "setting": "male rats, day 7, high dose", "value": "0.74 *"},
      {"measurement": "Creatine, treatment ratio versus control", "setting": "[5]", "value": "1.42 *"},
      {"measurement": "Creatinine, treatment ratio versus control", "setting": "[5]", "value": "0.74^"},
      {"measurement": "Glycerol-3-phosphate, polar fraction, treatment ratio versus control", "setting": "[5]", "value": "0.89^"},
      {"measurement": "Lysophosphatidylcholine (C18:2), treatment ratio versus control", "setting": "[5]", "value": "1.27 *"},
      {"measurement": "Threonic acid, treatment ratio versus control", "setting": "[5]", "value": "1.5 *"},
      {"measurement": "4-Hydroxy-3-methoxyphenylglycol (HMPG), treatment ratio versus control", "setting": "male rats, day 14, high dose", "value": "0.93 *"},
      {"measurement": "Cysteine, treatment ratio versus control", "setting": "male rats, day 14, high dose", "value": "0.51 *"},
      {"measurement": "Isopalmitic acid (C16:0), treatment ratio versus control", "setting": "male rats, day 14, high dose", "value": "0.76 *"},
      {"measurement": "Metanephrine, treatment ratio versus control", "setting": "male rats, day 14, high dose", "value": "0.74 *"},
      {"measurement": "Normetanephrine, treatment ratio versus control", "setting": "male rats, day 14, high dose", "value": "0.71 *"},
      {"measurement": "Creatine, treatment ratio versus control", "setting": "[6]", "value": "1.11 *"},
      {"measurement": "Creatinine, treatment ratio versus control", "setting": "[6]", "value": "0.78 *"},
      {"measurement": "Glycerol-3-phosphate, polar fraction, treatment ratio versus control", "setting": "[6]", "value": "0.89^"},
      {"measurement": "Lysophosphatidylcholine (C18:2), treatment ratio versus control", "setting": "[6]", "value": "1.15 *"},
      {"measurement": "Threonic acid, treatment ratio versus control", "setting": "[6]", "value": "1.53 *"},
      {"measurement": "4-Hydroxy-3-methoxyphenylglycol (HMPG), treatment ratio versus control", "setting": "male rats, day 28, high dose", "value": "0.83 *"},
      {"measurement": "Cysteine, treatment ratio versus control", "setting": "male rats, day 28, high dose", "value": "0.55 *"},
      {"measurement": "Isopalmitic acid (C16:0), treatment ratio versus control", "setting": "male rats, day 28, high dose", "value": "0.62 *"},
      {"measurement": "Metanephrine, treatment ratio versus control", "setting": "male rats, day 28, high dose", "value": "0.76^"},
      {"measurement": "Normetanephrine, treatment ratio versus control", "setting": "male rats, day 28, high dose", "value": "1.03^"}
    ]}
  ]
}
